# Measured values published in PubChem BioAssay (NCI).
#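 1) Cells in 96-well plates. 2) Compound, 48 h, 5 concentrations. 3) Linear interpolation between surrounding doses. 4) Unreached endpoint = highest concentration. TGI: total growth inhibition.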
# Columns and labels:
# Assay in all cases: NCI anticancer screen, dose series, 48 h
# [1] = system: EKVX NSCLC
# [2] = system: SF-268 CNS
# [3] = system: UO-31 renal
# [4] = system: OVCAR-3 ovarian
# [5] = system: A498 renal
# [6] = system: RPMI-8226 leukemia
# [7] = system: IGROV1 ovarian
# [8] = system: LOX IMVI melanoma
# [9] = system: NCI-H23 lung
# [10] = system: KM12 colon
# [11] = system: SF-539 CNS
# [12] = system: 786-0 renal
# [13] = system: HS 578T breast
# [14] = system: HOP-62 NSCLC
# [15] = system: SNB-75 CNS
# [16] = system: A549 NSCLC
# [17] = system: OVCAR-5 ovarian
# [18] = system: OVCAR-4 ovarian
# [19] = system: SW-620 colon
# [20] = system: MDA-MB-231 breast
# [21] = system: OVCAR-8 ovarian
# [22] = system: SNB-19 CNS
# [23] = system: HCT-116 colon
# [24] = system: SK-OV-3 ovarian
# [25] = system: MDA-MB-435
# [26] = system: UACC-257 melanoma
# [27] = system: NCI-H460 lung
# [28] = system: PC-3 prostate
# [29] = system: DU-145 prostate
# [30] = system: ACHN renal
# [31] = system: MDA-N
# [32] = system: HOP-92 NSCLC
# [33] = system: HCC-2998 colon
# [34] = system: RXF 393 renal
# [35] = system: MCF7 breast
# [36] = system: CCRF-CEM leukemia
# [37] = system: SK-MEL-5 melanoma
# [38] = system: BT-549 breast
# [39] = system: K-562 leukemia
# [40] = system: NCI/ADR-RES ovarian
# [41] = system: SK-MEL-28 melanoma
# [42] = system: CAKI-1 renal
# [43] = system: SF-295 CNS
# [44] = system: MOLT-4 leukemia
# [45] = system: MALME-3M melanoma
# [46] = system: M14 melanoma
# [47] = system: SK-MEL-2 melanoma
# [48] = system: COLO 205 colon
# [49] = system: SN12C renal
# [50] = system: SR leukemia
# [51] = system: TK-10 renal
# [52] = system: HL-60(TB) leukemia
# [53] = system: U251 CNS
# [54] = system: HCT-15 colon
# [55] = system: HT29 colon
# [56] = system: NCI-H226 lung
# [57] = system: UACC-62 melanoma
# [58] = system: NCI-H522 lung
# [59] = system: T-47D breast
# [60] = system: DMS 273 small cell lung
# [61] = system: LXFL 529 NSCLC
# [62] = system: SNB-78 CNS
# [63] = system: KM20L2 colon
# [64] = system: M19-MEL melanoma
# [65] = system: DLD-1 colon
# [66] = system: DMS 114 small cell lung
# [67] = system: HOP-18 NSCLC
# [68] = system: XF 498 CNS
compound,measurement,setting,value
COc1cc(/C=C/C(=O)c2c(=O)o[nH][n+]2-c2ccccc2)ccc1[O-],TGI,[1],15.9 µM
same,TGI,[2],15.2 µM
same,TGI,[3],10.1 µM
same,TGI,[4],4.82 µM
same,TGI,[5],20.2 µM
same,TGI,[6],5.55 µM
same,TGI,[7],9.66 µM
same,TGI,[8],6.75 µM
same,TGI,[9],8.78 µM
same,TGI,[10],8.77 µM
same,TGI,[11],5.92 µM
same,TGI,[12],4.94 µM
same,TGI,[13],9.6 µM
same,TGI,[14],16 µM
same,TGI,[15],8.7 µM
same,TGI,[16],14.8 µM
same,TGI,[17],25.6 µM
same,TGI,[18],7.17 µM
same,TGI,[19],5.85 µM
same,TGI,[20],12.4 µM
same,TGI,[21],8.09 µM
same,TGI,[22],17.4 µM
same,TGI,[23],5.67 µM
same,TGI,[24],16.1 µM
same,TGI,[25],9.24 µM
same,TGI,[26],12.4 µM
same,TGI,[27],4.34 µM
same,TGI,[28],21.7 µM
same,TGI,[29],5.72 µM
same,TGI,[30],6.17 µM
same,TGI,[31],6.25 µM
same,TGI,[32],7.39 µM
same,TGI,[33],6.28 µM
same,TGI,[34],4.65 µM
same,TGI,[35],13.8 µM
same,TGI,[36],3.52 µM
same,TGI,[37],15 µM
same,TGI,[38],7.9 µM
same,TGI,[39],8.61 µM
same,TGI,[40],7.22 µM
same,TGI,[41],8.85 µM
same,TGI,[42],9.41 µM
same,TGI,[43],31.6 µM
same,TGI,[44],5.59 µM
same,TGI,[45],12 µM
same,TGI,[46],9.64 µM
same,TGI,[47],6.06 µM
same,TGI,[48],27.2 µM
same,TGI,[49],5.3 µM
same,TGI,[50],4.54 µM
same,TGI,[51],10.5 µM
same,TGI,[52],3.65 µM
same,TGI,[53],11 µM
same,TGI,[54],6.12 µM
same,TGI,[55],6.64 µM
same,TGI,[56],> 24.1 µM
same,TGI,[57],13.7 µM
same,TGI,[58],4.29 µM
same,TGI,[59],11.7 µM
CCCCc1c2c(nc3c1CCc1cc4cc5c(nc4nc1-3)-c1nc3c(c(CCCC)c1CC5)CCCC3)CCCC2,TGI,[1],> 100 µM
same,TGI,[2],> 100 µM
same,TGI,[3],> 100 µM
same,TGI,[6],> 100 µM
same,TGI,[7],> 100 µM
same,TGI,[8],> 100 µM
same,TGI,[9],> 100 µM
same,TGI,[10],> 100 µM
same,TGI,[60],> 100 µM
same,TGI,[11],> 100 µM
same,TGI,[12],> 100 µM
same,TGI,[61],> 100 µM
same,TGI,[14],> 100 µM
same,TGI,[15],> 100 µM
same,TGI,[16],> 100 µM
same,TGI,[19],> 100 µM
same,TGI,[62],> 100 µM
same,TGI,[21],> 100 µM
same,TGI,[22],> 100 µM
same,TGI,[23],> 100 µM
same,TGI,[24],> 100 µM
same,TGI,[63],69.3 µM
same,TGI,[26],> 100 µM
same,TGI,[27],> 100 µM
same,TGI,[30],> 100 µM
same,TGI,[33],> 100 µM
same,TGI,[34],71.4 µM
same,TGI,[36],> 100 µM
same,TGI,[64],> 100 µM
same,TGI,[39],> 100 µM
same,TGI,[41],> 100 µM
same,TGI,[43],> 100 µM
same,TGI,[44],> 100 µM
same,TGI,[45],> 100 µM
same,TGI,[46],> 100 µM
same,TGI,[65],> 100 µM
same,TGI,[66],88 µM
same,TGI,[48],> 100 µM
same,TGI,[49],> 100 µM
same,TGI,[50],> 100 µM
same,TGI,[51],> 100 µM
same,TGI,[52],> 100 µM
same,TGI,[53],> 100 µM
same,TGI,[54],> 100 µM
same,TGI,[55],31.5 µM
same,TGI,[56],89.1 µM
same,TGI,[57],52 µM
same,TGI,[58],> 100 µM
COc1ccccc1N=C(N)N/N=C/c1c[nH]c2ccccc12,TGI,[1],23.2 µM
same,TGI,[2],29.1 µM
same,TGI,[3],27.1 µM
same,TGI,[4],25.7 µM
same,TGI,[6],32.1 µM
same,TGI,[7],28.9 µM
same,TGI,[8],22.6 µM
same,TGI,[9],19.2 µM
same,TGI,[10],29.6 µM
same,TGI,[11],26.4 µM
same,TGI,[12],26 µM
same,TGI,[61],13.1 µM
same,TGI,[14],30.2 µM
same,TGI,[15],25.4 µM
same,TGI,[16],26.6 µM
same,TGI,[17],26.9 µM
same,TGI,[18],31.3 µM
same,TGI,[19],10.4 µM
same,TGI,[62],25.1 µM
same,TGI,[67],34 µM
same,TGI,[21],28.2 µM
same,TGI,[22],28.6 µM
same,TGI,[23],19.6 µM
same,TGI,[24],31.7 µM
same,TGI,[63],26.1 µM
same,TGI,[26],11.7 µM
same,TGI,[27],22.8 µM
same,TGI,[30],22 µM
same,TGI,[33],6.27 µM
same,TGI,[34],27.3 µM
same,TGI,[36],31.2 µM
same,TGI,[37],8.91 µM
same,TGI,[64],24.7 µM
same,TGI,[39],11.6 µM
same,TGI,[41],16.3 µM
same,TGI,[42],26.7 µM
same,TGI,[43],21.3 µM
same,TGI,[44],23.4 µM
same,TGI,[45],8.19 µM
same,TGI,[46],10.5 µM
same,TGI,[65],31.7 µM
same,TGI,[47],19.2 µM
same,TGI,[66],15.5 µM
same,TGI,[48],3.32 µM
same,TGI,[49],22.7 µM
same,TGI,[50],26.9 µM
same,TGI,[51],30.9 µM
same,TGI,[52],33.3 µM
same,TGI,[53],24.2 µM
same,TGI,[54],15.7 µM
same,TGI,[55],14.9 µM
same,TGI,[56],28.5 µM
same,TGI,[57],27 µM
same,TGI,[68],16.9 µM
same,TGI,[58],19.8 µM
